Measurements: patent US9096615B2, “Bridged bicyclic amino thiazine dioxide compounds as inhibitors of beta-secretase and methods of use thereof” (AMGEN INC., priority 2013, dated 2015)

Key:
[1] = molecular target: BACE1 (Homo sapiens, UniProt P56817); experiment: In vitro enzymatic BACE FRET assay; assay type: biochemical; conditions: average IC50; read-out: BACE1 Enzyme assay IC50
Outline: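 BACE (0.2 nM) pre-incubated 1 h with serially diluted inhibitor in 0.05 M acetate pH 4.2, 10% DMSO, 100 uM genapol; 50 nM FRET peptide substrate added, 1 h incubation. Stopped with Tris to neutral pH; fluorescence read (ex 488, […]).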

[2] = molecular target: T1, Cathepsin D (Cat D) (Homo sapiens, UniProt P07339); experiment: In vitro enzymatic Cathepsin D (Cat D) FRET assay; assay type: biochemical; conditions: average IC50; first procedure; read-out: CatD IC50
T1 construct: made in house; host or cells: CHO cells
T1 sequence (P07339 65-412, species assumed): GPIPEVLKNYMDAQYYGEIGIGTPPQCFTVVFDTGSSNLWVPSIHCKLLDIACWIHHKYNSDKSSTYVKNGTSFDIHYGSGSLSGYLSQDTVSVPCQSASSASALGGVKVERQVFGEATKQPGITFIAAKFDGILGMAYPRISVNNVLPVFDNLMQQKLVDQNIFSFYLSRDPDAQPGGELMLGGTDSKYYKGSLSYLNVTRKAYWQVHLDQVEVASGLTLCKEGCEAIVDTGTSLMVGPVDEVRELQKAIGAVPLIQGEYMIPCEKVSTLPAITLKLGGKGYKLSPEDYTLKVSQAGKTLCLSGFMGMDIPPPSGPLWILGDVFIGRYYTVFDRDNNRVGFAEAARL
Outline: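 Recombinant human Cat D expressed in CHO cells, 9 nM, pre-incubated 1 h with inhibitor in 0.05 M citrate pH 3.5, 10% DMSO, 5 mM CHAPS. Reaction started with 20 nM FRET peptide substrate, run 1 h, stopped with Tris to neutral pH; fluorescence read at ex 500/em 580 nm.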

[3] = molecular target: T2, human Bace2 protein (Homo sapiens, UniProt Q9Y5Z0); experiment: In vitro enzymatic BACE2 FRET assay; assay type: biochemical; conditions: average IC50; read-out: BACE2 Enzyme assay IC50
T2 construct: V5 (C); 6-His (C)
T2 sequence (Q9Y5Z0 63-518): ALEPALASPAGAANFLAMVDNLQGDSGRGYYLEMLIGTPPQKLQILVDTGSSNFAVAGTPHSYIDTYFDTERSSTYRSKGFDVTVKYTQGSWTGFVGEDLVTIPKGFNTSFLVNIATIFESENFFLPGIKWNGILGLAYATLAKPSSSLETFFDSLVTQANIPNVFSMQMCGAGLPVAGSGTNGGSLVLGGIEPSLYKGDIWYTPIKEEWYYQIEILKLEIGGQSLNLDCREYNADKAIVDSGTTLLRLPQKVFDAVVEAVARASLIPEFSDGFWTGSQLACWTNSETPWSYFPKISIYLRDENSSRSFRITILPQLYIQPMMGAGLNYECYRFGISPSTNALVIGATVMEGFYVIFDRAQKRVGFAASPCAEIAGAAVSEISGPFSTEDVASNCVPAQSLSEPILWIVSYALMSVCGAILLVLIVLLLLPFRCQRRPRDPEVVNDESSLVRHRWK
Description: In Vitro Enzymatic BACE2 FRET (Fluorescence Resonance Energy Transfer) Assay
Enzyme Assay Data in the Table 3
The assay buffer used in this screen is 0.05 M acetate, pH 4.2, 10% DMSO final, 100 uM genapol (which is a nonionic detergent, below its Critical Micelle Concentration). The Beta Secretase2 enzyme (human Bace2 protein with C-terminal V5 and 6-His tag; 0.2 nM) is pre-incubated for one hour with inhibitors, typically in about 1 uL of DMSO according to a serial dilution, are added thereto. This assay is effectively started by the addition of FRET substrate (50 nM) and the combination is incubated for one hour. Final assay concentration of about 0.64 nM. The FRET assay is terminated with by addition of Tris buffer, which raises the pH to neutrality, and the fluorescence is determined. The FRET substrate is a peptide with commercially available fluorophore and quencher, on opposite sides of the BACE cleavage site. Proteolytic cleavage of the FRET substrate releases quenching of fluorescence (excitation 488 nm and […]).

[4] = tested on: Aβ40 in conditioned medium of cells stably expressing Amyloid Precursor Protein (APP); experiment: In vitro BACE cell-based assay (HEK cell assay, Aβ40 sandwich ELISA); conditions: Homo sapiens, HEK293; average IC50; read-out: BACE1 cell assay IC50
Outline: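 APP-stable cells were cultured 24 h at 37 °C, then given compound as 10-point dose-response (top 100 μM or 10 μM; 0.1% DMSO final) for 24 h. Aβ40 in conditioned medium was measured by sandwich ELISA (pAb40 capture, biotinylated 6E10 detection, Eu time-resolved fluorescence). IC50 from percent inhibition versus concentration.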

[5] = tested on: Aβ in lumbar CSF; conditions: cited from earlier work
[6] = tested on: rat; conditions: higher compound dose given for three months; cited from earlier work

Sequence of BACE1 (P56817 46-501, species assumed): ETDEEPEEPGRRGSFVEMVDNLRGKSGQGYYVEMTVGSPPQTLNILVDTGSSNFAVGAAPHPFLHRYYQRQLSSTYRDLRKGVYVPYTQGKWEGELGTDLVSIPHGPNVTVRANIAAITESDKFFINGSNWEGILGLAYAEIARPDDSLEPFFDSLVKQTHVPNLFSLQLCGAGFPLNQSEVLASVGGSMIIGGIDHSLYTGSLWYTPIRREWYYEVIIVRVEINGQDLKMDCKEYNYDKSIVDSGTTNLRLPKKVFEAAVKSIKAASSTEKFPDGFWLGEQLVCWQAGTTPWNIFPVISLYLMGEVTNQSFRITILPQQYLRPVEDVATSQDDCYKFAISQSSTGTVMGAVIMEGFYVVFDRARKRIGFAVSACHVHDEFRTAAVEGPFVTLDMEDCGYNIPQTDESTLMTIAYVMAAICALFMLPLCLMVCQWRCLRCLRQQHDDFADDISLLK

| SMILES | IC50 [1] | IC50 [2] | IC50 [3] | IC50 [4] | Aβ reductions in lumbar CSF ([5]; after oral dosing of 30 or 90 mg) | safety and tolerability ([5]; healthy volunteers) | rat toxicology finding in the eye [6] |
| --- | --- | --- | --- | --- | --- | --- | --- |
| CC#C[C@H](C)Oc1cnc(C(=O)Nc2ccc(F)c([C@@]3(C)N=C(N)[C@@]4(C)CC[C@@H]3S4(=O)=O)c2)cn1 [Example 71, N-(3-((1S,2R,5R)-4-amino-2,5-dimethyl-8,8-dioxido-8-thia-3-azabicyclo[3.2.1]oct-3-en-2-yl)-4-fluorophenyl)-5-(((1S)-1-methyl-2-butyn-1-yl)oxy)-2-pyrazinecarboxamide] | 0.003 µM | > 400 µM | 0.008 µM | 0.0001 µM | – | – | – |
| CC#CCOc1cnc(C(=O)Nc2ccc(F)c([C@@]3(C)N=C(N)[C@]4(C)CC[C@H]3S4(=O)=O)c2)cn1 [Example 83, N-(3-((1R,2R,5S)-4-amino-2,5-dimethyl-8,8-dioxido-8-thia-3-azabicyclo[3.2.1]oct-3-en-2-yl)-4-fluorophenyl)-5-(2-butyn-1-yloxy)-2-pyrazinecarboxamide] | 0.001 µM | 1100 µM | 0.082 µM | 0.0005 µM | – | – | – |
| C[C@]1(c2cc(Nc3nccc4cc(C#N)cnc34)ccc2F)N=C(N)[C@@]2(C)CC[C@@H]1S2(=O)=O [Example 84, 8-((3-((1S,2R,5R)-4-amino-2,5-dimethyl-8,8-dioxido-8-thia-3-azabicyclo[3.2.1]oct-3-en-2-yl)-4-fluorophenyl)amino)-1,7-naphthyridine-3-carbonitrile] | 0.002 µM | > 118 µM | 0.002 µM | 0.003 µM | – | – | – |
| C[C@]12CC[C@H]([C@@](C)(c3cc(Nc4nccc5cc(C#N)cnc45)ccc3F)N=C1N)S2(=O)=O [Example 85, 8-((3-((1R,2R,5S)-4-amino-2,5-dimethyl-8,8-dioxido-8-thia-3-azabicyclo[3.2.1]oct-3-en-2-yl)-4-fluorophenyl)amino)-1,7-naphthyridine-3-carbonitrile] | 0.013 µM | 1450 µM | 0.024 µM | 0.011 µM | – | – | – |
| Cc1cc(Cl)cnc1C(=O)Nc1ccc(F)c([C@@]2(C)N=C(N)[C@]3(CF)CC[C@H]2S3(=O)=O)c1 [Example 89, N-(3-((1R,2R,5S)-4-amino-5-(fluoromethyl)-2-methyl-8,8-dioxido-8-thia-3-azabicyclo[3.2.1]oct-3-en-2-yl)-4-fluorophenyl)-5-chloro-3-methyl-2-pyridinecarboxamide] | 0.016 µM | 1550 µM | 0.006 µM | 0.053 µM | – | – | – |
| C[C@]1(c2cc(Nc3nccc4nc(OCC(F)(F)F)cnc34)ccc2F)N=C(N)[C@@]2(CF)CC[C@@H]1S2(=O)=O [Example 112, N-(3-((1S,2R,5R)-4-amino-5-(fluoromethyl)-2-methyl-8,8-dioxido-8-thia-3-azabicyclo[3.2.1]oct-3-en-2-yl)-4-fluorophenyl)-2-(2,2,2-trifluoroethoxy)pyrido[3,4-b]pyrazin-5-amine] | 0.008 µM | 1310 µM | 0.058 µM | 0.188 µM | – | – | – |
| CC#CCOc1ccc(C(=O)Nc2ccc(F)c([C@@]3(C)N=C(N)[C@]4(C)CC[C@H]3S4(=O)=O)c2)c(F)c1 [Example 129, N-(3-((1R,2R,5S)-4-amino-2,5-dimethyl-8,8-dioxido-8-thia-3-azabicyclo[3.2.1]oct-3-en-2-yl)-4-fluorophenyl)-4-(2-butyn-1-yloxy)-2-fluorobenzamide] | 0.061 µM | 348 µM | 7 µM | 0.044 µM | – | – | – |
| C[C@]1(c2cc(Nc3ncnc4cc(OCC5CC5)cnc34)ccc2F)N=C(N)[C@@]2(C)CC[C@@H]1S2(=O)=O [Example 139, N-(3-((1S,2R,5R)-4-amino-2,5-dimethyl-8,8-dioxido-8-thia-3-azabicyclo[3.2.1]oct-3-en-2-yl)-4-fluorophenyl)-7-(cyclopropylmethoxy)pyrido[3,2-d]pyrimidin-4-amine] | 0.005 µM | 1280 µM | 0.067 µM | 0.005 µM | – | – | – |
| COCCOc1cnc2c(Nc3ccc(F)c([C@@]4(C)N=C(N)[C@@]5(C)CC[C@@H]4S5(=O)=O)c3)nccc2n1 [Example 145, N-(3-((1S,2R,5R)-4-amino-2,5-dimethyl-8,8-dioxido-8-thia-3-azabicyclo[3.2.1]oct-3-en-2-yl)-4-fluorophenyl)-2-(2-methoxyethoxy)pyrido[3,4-b]pyrazin-5-amine] | 0.003 µM | 1980 µM | 0.065 µM | 0.002 µM | – | – | – |
| C[C@@]1(c2cc(-c3cncnc3)c(F)cc2F)CCSC(N)=N1 [LY2811376, (S)-4-(2,4-difluoro-5-pyrimidin-5-yl-phenyl)-4-methyl-5,6-dihydro-4H-[1,3]thiazin-2-ylamine] | – | – | – | – | Prominent and long-lasting Aβ reductions | safe and well tolerated | damaged the pigment epithelium of the rat's eye |
